Measurements published in US20220412957A1, “METHODS OF TREATING CANCER PATIENTS WITH RAS NODE OR RTK TARGETED THERAPEUTIC AGENTS” (Celcuity Inc., priority 2019, published 2022).

Tested on: LPA1-initiated signaling in HER2-negative/PI3K//ERK/MEK/RAF/mTOR Wild-Type breast tumor cell samples
Test: impedance biosensor cell adhesion test, LPA1 agonist with RAS node inhibitors (Example 4)
Assay type: cell-based, human
Parameters: unit not given here
Text: Tissue and cell samples: 28 HER2-negative/PI3K//ERK/MEK/RAF/mTOR Wild-Type breast tumor cell samples were studied. […] From these responses, the net amount of LPA1-initiated signaling involving PI3K-α, Class 1 PI3K-isoforms (pan-PI3K), Class 1 PI3K-isoforms and mTOR, Bcl-xL and Bcl-2, MEK, ERK, and RAF, individually and in combination, was quantified.
In this example, 14 of the 28 patient cell samples tested recorded output values with at least one of the targeted therapeutic(s) above 250. […] Five patients would be selected to receive treatment with gedatolisib, four would be selected to receive treatment with copanlisib, one patient would be selected to receive treatment with PLX7904, six patients would be selected to receive treatment with gedatolisib and PLX7904, seven patients would be selected to receive treatment with gedatolisib and ravoxertinib, nine patients would be selected to receive treatment with gedatolisib and trametinib, and 14 patients would be selected to receive treatment with gedatolisib and navitoclax.

[1] = sample C1838.01.155, cut-off 250
[2] = sample C1986.01.10, cut-off 250
[3] = sample C2090.01.14, cut-off 250
[4] = sample C2169.01.10, cut-off 250
[5] = sample C3091.01.13, cut-off 250
[6] = sample C3132.01.13, cut-off 250
[7] = sample C3311.01.10, cut-off 250
[8] = sample CL021.01.869, cut-off 250

SMILES | output value (sample C1816.01.6, cut-off 250) | output value [1] | output value (sample C1918.01.5, cut-off 250) | output value [2] | output value [3] | output value (sample C2167.01.4, cut-off 250) | output value [4] | output value (sample C2483.01.6, cut-off 250) | output value (sample C2693.01.2, cut-off 250) | output value (sample C2697.01.4, cut-off 250) | output value (sample C2729.01.4, cut-off 250) | output value (sample C2748.01.4, cut-off 250) | output value (sample C2792.01.2, cut-off 250) | output value (sample C2794.01.9, cut-off 250) | output value (sample C2868.01.6, cut-off 250) | output value (sample C2991.01.7, cut-off 250) | output value [5] | output value (sample C3101.01.6, cut-off 250) | output value [6] | output value [7] | other results
CCN(C)S(=O)(=O)Nc1ccc(F)c(C(=O)c2c[nH]c3ncc(-c4cnc(C5CC5)nc4)cc23)c1F [PLX7904] | 158 | −91 | −5 | −19 | −38 | 22 | 14 | 67 | −10 | −2 | −2 | 14 | 5 | 36 | −12 | 53 | 50 | 262 | 22 | −17 | output value (sample C3337.01.6, cut-off 250): 58; output value (sample C3377.01.2, cut-off 250): −58; output value (sample C3507.01.5, cut-off 250): 46; output value (sample C3730.01.9, cut-off 250): −173; output value (sample C3873.01.4, cut-off 250): 89; output value (sample C3957.01.6, cut-off 250): −22; output value (sample C4005.01.2, cut-off 250): −22; output value [8]: 19
CN(C)C1CCN(C(=O)c2ccc(NC(=O)Nc3ccc(-c4nc(N5CCOCC5)nc(N5CCOCC5)n4)cc3)cc2)CC1 [gedatolisib] | 84 | 50 | 206 | 101 | 137 | 132 | 242 | 130 | 86 | 103 | 103 | 72 | 137 | 38 | 79 | 396 | 204 | 149 | 65 | 216 | output value (sample C3337.01.6, cut-off 250): 336; output value (sample C3377.01.2, cut-off 250): 113; output value (sample C3507.01.5, cut-off 250): 70; output value (sample C3730.01.9, cut-off 250): 494; output value (sample C3873.01.4, cut-off 250): 298; output value (sample C3957.01.6, cut-off 250): 74; output value (sample C4005.01.2, cut-off 250): 216; output value [8]: 353
Cn1nccc1Nc1nccc(-c2ccn([C@H](CO)c3ccc(Cl)c(F)c3)c(=O)c2)n1 [ravoxertinib] | 96 | 108 | 65 | 26 | 48 | 7 | 14 | 12 | −55 | 55 | 10 | 60 | 24 | −24 | −36 | 10 | 67 | −12 | −22 | −67 | output value (sample C3337.01.6, cut-off 250): 53; output value (sample C3377.01.2, cut-off 250): 0; output value (sample C3507.01.5, cut-off 250): −24; output value (sample C3730.01.9, cut-off 250): −300; output value (sample C3873.01.4, cut-off 250): 43; output value (sample C3957.01.6, cut-off 250): −5; output value (sample C4005.01.2, cut-off 250): 12; output value [8]: −226
CC(=O)Nc1cccc(-n2c(=O)n(C3CC3)c(=O)c3c(Nc4ccc(I)cc4F)n(C)c(=O)c(C)c32)c1 [trametinib] | 29 | 31 | 65 | 161 | 19 | −7 | 67 | 132 | −60 | 72 | 26 | 79 | 48 | −14 | −43 | −70 | 50 | 101 | 10 | 94 | output value (sample C3337.01.6, cut-off 250): 113; output value (sample C3377.01.2, cut-off 250): 149; output value (sample C3507.01.5, cut-off 250): −29; output value (sample C3730.01.9, cut-off 250): −204; output value (sample C3873.01.4, cut-off 250): −72; output value (sample C3957.01.6, cut-off 250): 10; output value (sample C4005.01.2, cut-off 250): 36; output value [8]: −226
